In EP2325185A1, “Plk inhibitor” (GPC Biotech AG, priority 2009, dated 2011):

Experiments:
Format in all cases: cell-based
Plk1 = Plk1 (Homo sapiens, UniProt P53350); test: Cellular Plk1 kinase activity: nucleophosmin (B23) Ser4 phosphorylation in HCT116 cells (MSD electrochemiluminescence); details: nocodazole-treated, 4 hours compound exposure, read-out: Biochemical IC50 Nucleophosmin assay
Protocol: Cellular Plk1 kinase activity was measured by quantification of nucleophosmin (B23) Ser4 phosphorylation in a cancer cell line. Nucleophosmin (B23) Ser4 is phosphorylated by Plkl, and this phosphorylation can be specifically detected by cross-reactivity of a phospho-Mekl/2 antibody that is able to recognizes a mitotic-specific phosphorylated form of nucleophosmin (B23) in a nocodazole dependent way (Zhang, H., Shi, X., Paddon, H., Hampong, M., Dai, W., and Pelech, S. (2004) B23/Nuleophosmin Serin 4 Phosphorylation Mediates Mitotic Functions of Polo-like Kinase 1. J. Biol. Chem., 279(34), 35726-35734).
Briefly, HCT116 cells (ATCC, Order No. CCL-247) were plated in 96 well dishes 24 hours prior to nocodazole treatment at 25 000 cells per well. Cells were then treated with 100 ng/ml nocodazole (Sigma-Aldrich, # M1404). […]
The cell lysates were thawed at room temperature and 40 µl were incubated on 96-well MULTI-ARRAY High Bind plates (L11XB; MSD) for 1.5 - 2 hours at room temperature. […] Then, 150 µl of 1x Read Buffer T (R92TC; MSD) were carefully added to each well and the plates were quantitatively detected for each well with a SECTOR™ Imager 6000 (MSD).
Inhibitory activity of the compound (IC) was calculated as % inhibition of nucleophosmin (B23) Ser4 phosphorylation compared to cells […].

HCT 116 = test: SRB cell proliferation assay, HCT 116; details: Homo sapiens, HCT-116; 72 hours, SRB; read-out: CELLULAR IC50 HCT 116
Protocol: (§1) Cells were exposed to the test compound racemate at various concentrations appropriate to determine an IC50 for 72 hours. Cell proliferation was measured using the SRB assay according to Shekan et al (J Natl Cancer Inst (1990) 82, 1107-112) in order to estimate the IC50 values shown in Table 3. Briefly, cells were plated in 96 well dishes 24 hours prior to compound addition at the densities specified in Table 5.1. The assay was terminated with the addition of cold TCA to a final concentration of 10% after growth medium has been removed and the plates were incubated over night at 4°C. The plates were then washed 5 times with water and 100µl of a Sulforhodamine B solution ([…]) was added to each well. The plates were then incubated for 10 minutes at room temperature before removal of unbound dye by washing with 1% acetic acid. The bound dye was solubilised with 10 mM Trizma base and the absorbance read at OD520.
(§2) Inhibitory activity of the compound (IC) was calculated as % inhibition of cell proliferation compared to cells treated with the solvent (DMSO).
(§3) Table 8.1: 18-Cell Line Panel

HT-29 = test: SRB cell proliferation assay, HT-29; details: Homo sapiens, HT-29; 72 hours, SRB; read-out: CELLULAR IC50 HT-29
Protocol: as §1, §2, §3

IMR-90 = test: SRB cell proliferation assay, IMR-90; details: Homo sapiens, IMR-90; 72 hours, SRB; read-out: CELLULAR IC50 IMR-90
Protocol: as §1, §2, §3

Plk1, sequence (P53350 whole entry, species assumed): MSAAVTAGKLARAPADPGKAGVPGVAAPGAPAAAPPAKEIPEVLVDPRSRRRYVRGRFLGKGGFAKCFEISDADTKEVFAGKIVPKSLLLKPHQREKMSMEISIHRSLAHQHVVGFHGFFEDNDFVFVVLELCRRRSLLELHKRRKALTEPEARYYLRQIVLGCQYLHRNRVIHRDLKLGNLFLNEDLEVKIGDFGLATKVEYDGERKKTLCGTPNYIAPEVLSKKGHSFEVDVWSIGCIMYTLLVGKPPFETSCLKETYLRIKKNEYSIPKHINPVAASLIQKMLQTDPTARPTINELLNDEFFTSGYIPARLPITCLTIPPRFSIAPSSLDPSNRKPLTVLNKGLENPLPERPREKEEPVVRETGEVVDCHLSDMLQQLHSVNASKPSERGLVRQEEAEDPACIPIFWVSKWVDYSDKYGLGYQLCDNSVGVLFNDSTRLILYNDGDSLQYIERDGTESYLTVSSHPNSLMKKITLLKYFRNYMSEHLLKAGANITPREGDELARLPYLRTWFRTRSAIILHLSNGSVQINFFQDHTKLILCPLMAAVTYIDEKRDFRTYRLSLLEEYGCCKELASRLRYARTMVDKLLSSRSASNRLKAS

For CCC1C(=O)N(C)c2cnc(Nc3ccc(C(=O)N[C@H]4CC[C@H](N5CCN(CC6CC6)CC5)CC4)cc3OC)nc2N1N(C)C (mixture of isomers) [racemic mixture containing compound 1 and (S)-enantiomer, N-[trans-4-(4-Cyclopropylmethyl-piperazin-1-yl)-cyclohexyl]-4-(8-dimethylamino-7-ethyl-5-methyl-6-oxo-5,6,7,8-tetrahydro-pteridin-2-ylamino)-3-methoxy-benzamide], the IC50 (Plk1) was < 100 nM, the IC50 (HCT 116) was < 1000 nM and the IC50 (HT-29) was < 1000 nM. The IC50 (IMR-90) was > 1000 nM.
